According to US20100190737A1, “COMPOSITIONS COMPRISING INOSINE AND OROTIC ACID AND METHODS OF USE THEREOF FOR THE TREATMENT OF CERTAIN HEART CONDITIONS AND ENHANCEMENT OF WORK CAPACITY” (NUTRITIONAL RESEARCH GROUP LLC, priority 2009, published 2010):
“And” between values parts separate entries of the source, which are not always exact repeats. Equal values may be shown once.

How the values were obtained:
[1] = system: rats with experimental aortic stenosis; experiment: Long term (12 month) experimental aortic stenosis; format: in vivo, rat; conditions: for Mortality %: 12 month study, 15 rats per group, inosine 25, potassium orotate 50 mg/kg/day from day 45 for 10.5 months, untreated stenosis 47
Method: A 12 month study using 60 white unbred male rats with initial body weights of 110-120 g, divided into four experimental groups, each group with 15 rats. Group I included intact animals (controls); Group II—rats with experimental aortic stenosis (untreated stenosed controls); Group III rats with experimental aortic stenosis given inosine in doses of 25 mg/kg/day; and Group IV rats with experimental aortic stenosis given both inosine and an orotic acid (in the instant study potassium orotate was used, however, as the orotic acid comprises 93-95% percent of any of the orotates, the results achieved are indicative of usage of any of the orotates including the potassium orotate used herein) combination in doses of 25 and 50 mg/kg/day, respectively, intragastrically, using a metal curved tube, beginning from the 45th day after the creation date of the abdominal aortic stenosis, and continuing for 10.5 months. The abdominal aortic stenosis was produced by the method of Beznak, referred to hereinabove, modified by Kogan, referred to above.
During the experimental period the animals in all four groups had regular measurements (recordings) of body weight and the 3-standard lead EKG-ms and 5-plane pericardial vector-cardiograms (VCG). At the beginning and end of the experimental period they also underwent tests for the endurance of a single, dosed physical exercise—forced swimming in a pool at 28-30° C., until maximally exhausted. Specifically, an animal had fixed to its tail a lead weight weighing approximately 7.5% percent of the animal's body weight became submerged due to the inability to continue swimming. At the end of the experimental period, the animals were sacrificed, and their hearts, thymuses, livers, adrenals and thyroids were weighed and their relative weights per 100 g body weight were calculated and recorded. Histological figures of sectioned cardiac muscle stained with hematoxilin-eosin were prepared by Van Hison's technique and examined for any attendant alterations in the normal histology of the heart. During the experiment, (untreated aortic stenosis) 8 of the 15 rats in Group II died, while in Group III (treated stenosis w/inosine) and Group IV (treated stenosis w/inosine and potassium orotate)—only 3 rats in each group died. […] The observed time period wherein the rats could swim were as follows: Groups I animals 45±2.0 minutes; Group II 6.5±2.1 minutes; Group III 16±1.2 minutes; and Group IV 32±4 minutes, respectively. Thus, the group receiving the combination of inosine and potassium orotate performed far better than Group II (untreated stenosis) and had doubled the work capacity of Group III (treated with inosine only). The relative weight of the heart in animals in Groups II, III and IV was higher than in Group I (control group) by 67%, 36% and 56%, respectively. (See Tables 2 A-B). The hearts of Group II animals were in the state of eccentric hypertrophy which explains the higher weight (see FIG. 5). The left ventricular wall in the animals of Group II was 8% thinner than in rats of Group I as a result of the eccentric condition. In rats of Groups III and IV the left ventricular wall was 30% and 46% thicker, respectively, than the rats in group I and they were all in the state of concentric heart hypertrophy.

[2] = system: chinchilla rabbits with experimental myocardial infarction; experiment: Experimentally-induced myocardial infarction (coronary artery ligation); format: in vivo, rabbit; conditions: for NN of Animals With Necrosis: of 10 animals; for EKG Q: oral 100 mg/kg BW of each ingredient daily
Method: Histological, light microscopic methods of investigation have been employed to study the zone of necrosis, perinecrotic zone and myocardium regions spaced from the time of infarction by 7 and 14 days after the infarction event. Dynamic electrocardiographic observation over the animals was carried out during the first day and during the following 7 and 14 days. The study of the total cross-sectional patterns of a rabbit's heart has made it possible to precisely define these zones. The first Group of 10 animals was sham-operated without treatment (Group I, positive control-Intact, no MI). […] Group II animals were without treatment (negative control-MI Control).

For `OC[C@H]1O[C@@H](n2cnc3c(O)ncnc32)[C@H](O)[C@@H]1O` [inosine], the “EKG QRS 1½ months” value ([1]; 1½ months (before treatment)) was 0.021 ± 0.004 s, the “EKG R Wave Voltage 1½ months” value ([1]; 1½ months (before treatment)) was 0.38 ± 0.05 mV and the “EKG Stroke Index 1½ months” value ([1]; 1½ months (before treatment)) was 47 ± 10%. The “Heart Rate 1½ months” value ([1]; 1½ months (before treatment)) was 410 ± 11 beats/min, the “T Wave Voltage 1½ months” value ([1]; 1½ months (before treatment)) was 0.21 ± 0.01 mV and the Mortality % [1] was 20%. For the same compound, the Mortality % ([1]; listed as Inosine) was 20%, the “EKG QRS 12 months” value ([1]; 12 months) was 0.022 ± 0.001 s and the “EKG R Wave Voltage 12 months” value ([1]; 12 months) was 0.9 ± 0.09 mV. The “EKG Stroke Index 12 months” value ([1]; 12 months) was 34 ± 1.2%, the “Heart Rate 12 months” value ([1]; 12 months) was 420 ± 16 beats/min and the “T Wave Voltage 12 months” value ([1]; 12 months) was 0.29 ± 0.05 mV. For the same compound, the “left ventricular wall thicker than in Group I” value ([1]; 12 months) was 30%, the “relative weight of the heart higher than in Group I (control)” value ([1]; 12 months) was 36% and the “QRS-T angle 120° to 180°” value ([1]; 12 months after surgery) was 5. For the same compound, the “Relative weight of Heart” value ([1]; 12 months after surgery) was 387 ± 9.5 mg/100 g, the “Thickness of Left Ventricular Wall” value ([1]; 12 months after surgery) was 3.9 ± 0.14 mm and the “VGC QRS Amplitude” value ([1]; 12 months after surgery) was 3.2 ± 0.12 mV. The “VGC QRS Area” value ([1]; 12 months after surgery) was 8.3 ± 1.1 cm^2, the “VGC QRS Not closed” value ([1]; 12 months after surgery) was 58% and the “VGC T Amplitude” value ([1]; 12 months after surgery) was 0.6 ± 0.01 mV. The “Working capacity (min) 1½ months” value ([1]; forced swimming, 1½ months after surgery (treatment began on the 45th day)) was 43 ± 4.6 min, the “Working capacity (min) 12 months” value ([1]; forced swimming, 12 months after surgery, 10.5 months of treatment) was 16 ± 1.2 min and 16 ± 1.3 min and the “appearance of the myocardium, light micrographs (FIG. 6)” value ([1]; haemotoxylin-eosin stained sections) was “normal appearance”. The “rats that died during the experiment” value ([1]; of 15 rats per group, untreated stenosis 8) was 3 rats, the “development of cardiac eccentric hypertrophy” value ([1]; prolonged administration) was “prevented development of cardiac eccentric hypertrophy” and the “ultrastructure of left ventricular myocardium, mitochondria (FIG. 7)” value ([1]; rat, in vivo) was “normal sized mitochondria”. For the same compound, the “critical heart weight enhanced by” value ([1]; versus critical weight of rats with the same body weight) was 16%, the “Thickness of Left Ventricular Wall” value ([2]; Day 7) was 5.2 ± 0.72 mm and the “EKG R” value ([2]; Day 7, 100 mg/kg BW each) was 4.1 ± 0.30 mm. The “NN of Animals With Necrosis” value ([2]; Day 7, MI control 10) was 5, the “EKG Q” value ([2]; Day 7) was 1.1 ± 0.03 mm and the “EKG QRS” value ([2]; Day 14) was 0.068 ± 0.003 s. For the same compound, the “EKG R” value ([2]; Day 14) was 4.3 ± 0.28 mm, the “Thickness of Left Ventricular Wall” value ([2]; Day 14) was 5.6 ± 0.21 mm and the “NN of Animals With Necrosis” value ([2]; Day 14, MI control 3) was 0. For the same compound, the “EKG Q” value ([2]; Day 14) was 0.8 ± 0.02 mm, the reduction in necroses ([2]; administered individually, 100 mg/kg) was 50% and the “hemorrhages or infiltration in the infarction zone” value ([2]; by the fourteenth day) was “virtually had no hemorrhages or infiltration in the infarction zone”. For the same compound, the “restoration of EKG readings” value ([2]; by the seventh experimental day) was “nearly a complete restoration of the voltage of EKG waves and of the systolic index”.
